What was measured:
Assay in all cases: radiometric filter-binding kinase assay
[1] = tested on: AKT1 (human), P31749 [S473D]
[2] = molecular target: AURKA (human) (UniProt O14965)
[3] = molecular target: BRSK1 (human) (UniProt Q8TDC3)
[4] = molecular target: DYRK2 (human) (UniProt Q92630)
[5] = molecular target: EEF2K (human) (UniProt O00418)
[6] = molecular target: EPHA2 (human) (UniProt P29317)
[7] = molecular target: EPHB3 (human) (UniProt P54753)
[8] = molecular target: ERBB4 (human) (UniProt Q15303)
[9] = molecular target: GSK3B (human) (UniProt P49841)
[10] = molecular target: HIPK3 (human) (UniProt Q9H422)
[11] = molecular target: INSR (human) (UniProt P06213)
[12] = molecular target: IRAK4 (human) (UniProt Q9NWZ3)
[13] = molecular target: MAP2K2 (human) (UniProt P36507)
[14] = molecular target: MAP2K6 (human) (UniProt P52564)
[15] = molecular target: MAP3K1 (human) (UniProt Q13233)
[16] = molecular target: MAP3K11 (human) (UniProt Q16584)
[17] = molecular target: MAP3K5 (human) (UniProt Q99683)
[18] = molecular target: MAP3K7 TAB1 (human) (UniProt Q15750+O43318)
[19] = molecular target: MAP3K9 (human) (UniProt P80192)
[20] = molecular target: MAPK12 (human) (UniProt P53778)
Sequence of MAPK12 (human) (P53778 whole entry, looked up): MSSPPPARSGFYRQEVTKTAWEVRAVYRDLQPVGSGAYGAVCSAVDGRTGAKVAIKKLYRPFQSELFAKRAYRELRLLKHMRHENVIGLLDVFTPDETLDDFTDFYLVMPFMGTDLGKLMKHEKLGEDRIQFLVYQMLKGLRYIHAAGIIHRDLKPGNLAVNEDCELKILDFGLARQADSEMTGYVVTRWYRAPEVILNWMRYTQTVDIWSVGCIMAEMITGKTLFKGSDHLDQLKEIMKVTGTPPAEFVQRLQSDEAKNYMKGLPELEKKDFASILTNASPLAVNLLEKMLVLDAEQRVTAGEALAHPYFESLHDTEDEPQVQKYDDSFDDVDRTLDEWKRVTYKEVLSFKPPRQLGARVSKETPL

[21] = molecular target: MAPK9 (human) (UniProt P45984)
Sequence of MAPK9 (human) (P45984 whole entry, looked up): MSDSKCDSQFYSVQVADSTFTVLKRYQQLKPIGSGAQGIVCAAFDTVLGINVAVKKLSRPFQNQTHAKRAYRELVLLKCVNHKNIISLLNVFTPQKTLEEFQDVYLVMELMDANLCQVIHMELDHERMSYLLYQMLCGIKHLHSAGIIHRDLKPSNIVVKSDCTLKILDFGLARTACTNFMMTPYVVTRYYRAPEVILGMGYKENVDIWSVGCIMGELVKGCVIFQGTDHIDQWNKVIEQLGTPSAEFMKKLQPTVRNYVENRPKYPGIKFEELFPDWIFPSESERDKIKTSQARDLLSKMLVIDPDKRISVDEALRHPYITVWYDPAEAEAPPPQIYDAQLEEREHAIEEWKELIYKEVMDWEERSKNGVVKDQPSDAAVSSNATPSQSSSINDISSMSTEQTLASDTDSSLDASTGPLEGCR

[22] = molecular target: MAPKAPK2 (human) (UniProt P49137)
Sequence of MAPKAPK2 (human) (P49137 whole entry, looked up): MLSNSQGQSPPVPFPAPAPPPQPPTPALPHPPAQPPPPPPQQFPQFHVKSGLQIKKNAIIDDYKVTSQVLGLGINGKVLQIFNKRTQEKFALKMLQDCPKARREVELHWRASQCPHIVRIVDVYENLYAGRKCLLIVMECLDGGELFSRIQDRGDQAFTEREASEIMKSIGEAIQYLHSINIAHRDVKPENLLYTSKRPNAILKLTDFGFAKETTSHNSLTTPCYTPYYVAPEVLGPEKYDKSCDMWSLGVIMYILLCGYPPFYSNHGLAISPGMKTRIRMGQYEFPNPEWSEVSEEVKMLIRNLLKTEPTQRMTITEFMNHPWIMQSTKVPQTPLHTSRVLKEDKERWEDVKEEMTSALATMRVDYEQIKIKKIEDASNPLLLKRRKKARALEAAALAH

[23] = molecular target: MARK1 (human) (UniProt Q9P0L2)
[24] = molecular target: MARK2 (human) (UniProt Q7KZI7)
[25] = molecular target: MARK4 (human) (UniProt Q96L34)
[26] = molecular target: MELK (human) (UniProt Q14680)
[27] = molecular target: MST4 (human) (UniProt Q9P289)
Sequence of MST4 (human) (Q9P289 whole entry, looked up): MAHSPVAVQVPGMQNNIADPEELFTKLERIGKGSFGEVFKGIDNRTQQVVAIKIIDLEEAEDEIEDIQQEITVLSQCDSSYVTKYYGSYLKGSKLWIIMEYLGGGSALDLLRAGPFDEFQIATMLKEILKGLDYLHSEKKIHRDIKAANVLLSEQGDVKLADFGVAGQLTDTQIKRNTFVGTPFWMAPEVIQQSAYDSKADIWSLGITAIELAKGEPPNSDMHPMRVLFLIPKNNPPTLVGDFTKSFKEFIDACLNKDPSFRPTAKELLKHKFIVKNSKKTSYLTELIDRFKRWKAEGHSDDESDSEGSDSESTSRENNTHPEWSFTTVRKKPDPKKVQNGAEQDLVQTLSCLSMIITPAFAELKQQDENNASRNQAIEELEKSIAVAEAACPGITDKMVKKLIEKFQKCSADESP

[28] = molecular target: NTRK1 (human) (UniProt P04629)
[29] = molecular target: NUAK1 (human) (UniProt O60285)
[30] = molecular target: PAK4 (human) (UniProt O96013)
[31] = molecular target: PAK6 (human) (UniProt Q9NQU5)
Sequence of PAK6 (human) (Q9NQU5 whole entry, looked up): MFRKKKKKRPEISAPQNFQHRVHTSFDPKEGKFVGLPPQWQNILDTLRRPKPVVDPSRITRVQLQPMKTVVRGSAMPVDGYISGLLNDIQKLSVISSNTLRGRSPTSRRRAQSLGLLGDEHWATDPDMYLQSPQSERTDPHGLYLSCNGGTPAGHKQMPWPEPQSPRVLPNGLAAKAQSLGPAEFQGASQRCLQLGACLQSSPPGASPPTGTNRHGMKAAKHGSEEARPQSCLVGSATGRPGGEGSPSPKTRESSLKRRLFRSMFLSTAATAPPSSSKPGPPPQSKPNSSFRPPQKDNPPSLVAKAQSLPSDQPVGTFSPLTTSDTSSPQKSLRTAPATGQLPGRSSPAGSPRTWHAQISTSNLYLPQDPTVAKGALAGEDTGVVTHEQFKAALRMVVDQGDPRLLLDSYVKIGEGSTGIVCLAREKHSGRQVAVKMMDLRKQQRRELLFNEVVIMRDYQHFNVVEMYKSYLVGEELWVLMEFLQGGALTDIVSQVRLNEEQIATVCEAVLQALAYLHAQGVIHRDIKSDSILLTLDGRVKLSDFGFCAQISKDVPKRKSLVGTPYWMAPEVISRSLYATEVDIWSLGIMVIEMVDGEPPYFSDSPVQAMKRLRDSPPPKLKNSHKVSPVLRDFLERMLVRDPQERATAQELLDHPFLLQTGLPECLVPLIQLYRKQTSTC

[32] = molecular target: PIM1 (human) (UniProt P11309)
[33] = molecular target: PKN2 (human) (UniProt Q16513)
[34] = molecular target: PRKCA (human) (UniProt P17252)
[35] = molecular target: PRKCZ (human) (UniProt Q05513)
Sequence of PRKCZ (human) (Q05513 whole entry, looked up): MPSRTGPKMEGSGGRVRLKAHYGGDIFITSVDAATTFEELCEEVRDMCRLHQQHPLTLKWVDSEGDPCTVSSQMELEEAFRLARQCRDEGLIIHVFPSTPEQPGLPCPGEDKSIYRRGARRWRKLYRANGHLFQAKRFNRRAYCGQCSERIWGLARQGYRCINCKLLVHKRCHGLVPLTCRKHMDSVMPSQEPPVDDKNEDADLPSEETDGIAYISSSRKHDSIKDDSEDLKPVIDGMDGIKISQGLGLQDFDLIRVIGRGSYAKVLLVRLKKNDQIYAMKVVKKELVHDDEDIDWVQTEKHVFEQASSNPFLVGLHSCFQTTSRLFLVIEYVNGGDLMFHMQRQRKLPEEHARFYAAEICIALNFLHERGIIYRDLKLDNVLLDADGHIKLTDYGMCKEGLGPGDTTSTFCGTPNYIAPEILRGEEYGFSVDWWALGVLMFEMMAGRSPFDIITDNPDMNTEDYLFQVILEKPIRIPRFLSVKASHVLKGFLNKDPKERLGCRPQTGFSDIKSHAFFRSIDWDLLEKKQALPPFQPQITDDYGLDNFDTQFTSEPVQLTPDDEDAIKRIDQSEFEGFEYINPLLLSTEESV

[36] = molecular target: STK11 CAB39 STRADA (human) (UniProt Q9Y376+Q7RTN6+Q15831)

Sequence of DYRK2 (human) (Q92630 whole entry, looked up): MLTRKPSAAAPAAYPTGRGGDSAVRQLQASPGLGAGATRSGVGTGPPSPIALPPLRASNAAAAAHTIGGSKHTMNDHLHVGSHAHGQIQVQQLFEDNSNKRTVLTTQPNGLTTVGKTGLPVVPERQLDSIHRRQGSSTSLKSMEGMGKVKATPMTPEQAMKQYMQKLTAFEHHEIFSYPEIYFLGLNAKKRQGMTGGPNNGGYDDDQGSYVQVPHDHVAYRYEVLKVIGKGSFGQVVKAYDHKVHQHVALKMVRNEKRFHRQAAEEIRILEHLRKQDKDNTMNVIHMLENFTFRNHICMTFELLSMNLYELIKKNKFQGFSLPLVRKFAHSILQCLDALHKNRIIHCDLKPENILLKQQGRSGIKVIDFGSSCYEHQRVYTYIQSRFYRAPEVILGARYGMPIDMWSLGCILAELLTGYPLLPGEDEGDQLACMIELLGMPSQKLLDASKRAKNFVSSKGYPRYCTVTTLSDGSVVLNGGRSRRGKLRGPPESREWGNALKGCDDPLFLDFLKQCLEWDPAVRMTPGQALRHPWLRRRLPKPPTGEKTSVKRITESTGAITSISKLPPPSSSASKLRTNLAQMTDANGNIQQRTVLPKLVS
Sequence of EEF2K (human) (O00418 whole entry, looked up): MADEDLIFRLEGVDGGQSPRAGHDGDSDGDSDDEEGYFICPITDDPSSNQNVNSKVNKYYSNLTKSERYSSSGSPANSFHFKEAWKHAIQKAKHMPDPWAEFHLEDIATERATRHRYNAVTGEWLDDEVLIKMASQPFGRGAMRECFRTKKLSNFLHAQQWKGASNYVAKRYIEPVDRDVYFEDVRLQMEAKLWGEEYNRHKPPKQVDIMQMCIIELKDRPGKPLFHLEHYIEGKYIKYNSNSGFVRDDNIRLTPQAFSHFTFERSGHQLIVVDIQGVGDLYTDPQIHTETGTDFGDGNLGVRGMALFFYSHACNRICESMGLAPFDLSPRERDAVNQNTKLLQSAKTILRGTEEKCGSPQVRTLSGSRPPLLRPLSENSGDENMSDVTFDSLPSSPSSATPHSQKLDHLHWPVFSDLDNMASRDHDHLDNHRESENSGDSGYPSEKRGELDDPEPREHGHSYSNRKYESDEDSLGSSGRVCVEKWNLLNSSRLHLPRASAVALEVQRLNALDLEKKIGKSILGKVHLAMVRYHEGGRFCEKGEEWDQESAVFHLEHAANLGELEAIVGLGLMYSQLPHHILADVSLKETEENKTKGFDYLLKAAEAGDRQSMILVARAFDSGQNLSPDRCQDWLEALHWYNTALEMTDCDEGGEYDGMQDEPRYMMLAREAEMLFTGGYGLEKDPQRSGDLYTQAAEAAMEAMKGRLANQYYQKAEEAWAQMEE

## N#Cc1c(O)c2c(-c3ccc(-c4ccccc4O)cc3)csc2[nH]c1=O
[1]; compound 10.0 µM
  residual activity: 94%
[1]; compound 50.0 µM
  residual activity: 62%
[1]; compound 100.0 µM
  residual activity: 78%
[2]; compound 10.0 µM
  residual activity: 93%
[2]; compound 100.0 µM
  residual activity: 64%
[3]; compound 10.0 µM
  residual activity: 76%
[3]; compound 100.0 µM
  residual activity: 51%
[4]; compound 10.0 µM
  residual activity: 63%
[4]; compound 50.0 µM
  residual activity: 84%
[4]; compound 100.0 µM
  residual activity: 33%
[5]; compound 10.0 µM
  residual activity: 89%
[5]; compound 50.0 µM
  residual activity: 73%
[5]; compound 100.0 µM
  residual activity: 64%
[6]; compound 10.0 µM
  residual activity: 82%
[6]; compound 50.0 µM
  residual activity: 64%
[6]; compound 100.0 µM
  residual activity: 40%
[7]; compound 10.0 µM
  residual activity: 81%
[7]; compound 100.0 µM
  residual activity: 55%
[8]; compound 10.0 µM
  residual activity: 33%
[8]; compound 100.0 µM
  residual activity: 8%
[9]; compound 10.0 µM
  residual activity: 80%
[9]; compound 50.0 µM
  residual activity: 17%
[9]; compound 100.0 µM
  residual activity: 46%
[10]; compound 10.0 µM
  residual activity: 97%
[10]; compound 50.0 µM
  residual activity: 52%
[10]; compound 100.0 µM
  residual activity: 43%
[11]; compound 10.0 µM
  residual activity: 103%
[11]; compound 100.0 µM
  residual activity: 69%
[12]; compound 10.0 µM
  residual activity: 82%
[12]; compound 100.0 µM
  residual activity: 34%
[13]; compound 10.0 µM
  residual activity: 74%
[13]; compound 100.0 µM
  residual activity: 19%
[14]; compound 10.0 µM
  residual activity: 85%
[14]; compound 100.0 µM
  residual activity: 84%
[15]; compound 10.0 µM
  residual activity: 26%
[15]; compound 100.0 µM
  residual activity: 7%
[16]; compound 10.0 µM
  residual activity: 43%
[16]; compound 100.0 µM
  residual activity: 4%
[17]; compound 10.0 µM
  residual activity: 140%
[17]; compound 100.0 µM
  residual activity: 250%
[18]; compound 10.0 µM
  residual activity: 83%
[18]; compound 100.0 µM
  residual activity: 72%
[19]; compound 10.0 µM
  residual activity: 59%
[19]; compound 100.0 µM
  residual activity: 18%
[20]; compound 10.0 µM
  residual activity: 95%
[20]; compound 50.0 µM
  residual activity: 80%
[20]; compound 100.0 µM
  residual activity: 83%
[21]; compound 10.0 µM
  residual activity: 94%
[21]; compound 50.0 µM
  residual activity: 89%
[21]; compound 100.0 µM
  residual activity: 88%
[22]; compound 10.0 µM
  residual activity: 77%
[22]; compound 50.0 µM
  residual activity: 32%
[22]; compound 100.0 µM
  residual activity: 30%
[23]; compound 10.0 µM
  residual activity: 59%
[23]; compound 100.0 µM
  residual activity: 68%
[24]; compound 10.0 µM
  residual activity: 64%
[24]; compound 100.0 µM
  residual activity: 49%
[25]; compound 10.0 µM
  residual activity: 92%
[25]; compound 100.0 µM
  residual activity: 45%
[26]; compound 10.0 µM
  residual activity: 46%
[26]; compound 50.0 µM
  residual activity: 64%
[26]; compound 100.0 µM
  residual activity: 21%
[27]; compound 10.0 µM
  residual activity: 74%
[27]; compound 50.0 µM
  residual activity: 57%
[27]; compound 100.0 µM
  residual activity: 14%
[28]; compound 10.0 µM
  residual activity: 69%
[28]; compound 100.0 µM
  residual activity: 28%
[29]; compound 10.0 µM
  residual activity: 61%
[29]; compound 100.0 µM
  residual activity: 10%
[30]; compound 10.0 µM
  residual activity: 52%
[30]; compound 50.0 µM
  residual activity: 38%
[30]; compound 100.0 µM
  residual activity: 41%
[31]; compound 10.0 µM
  residual activity: 69%
[31]; compound 50.0 µM
  residual activity: 92%
[31]; compound 100.0 µM
  residual activity: 82%
[32]; compound 10.0 µM
  residual activity: 26%
[32]; compound 50.0 µM
  residual activity: 5%
[32]; compound 100.0 µM
  residual activity: 7%
[33]; compound 10.0 µM
  residual activity: 85%
[33]; compound 50.0 µM
  residual activity: 85%
[33]; compound 100.0 µM
  residual activity: 59%
[34]; compound 10.0 µM
  residual activity: 94%
[34]; compound 50.0 µM
  residual activity: 60%
[34]; compound 100.0 µM
  residual activity: 90%
[35]; compound 10.0 µM
  residual activity: 96%
[35]; compound 50.0 µM
  residual activity: 67%
[35]; compound 100.0 µM
  residual activity: 28%
[36]; compound 10.0 µM
  residual activity: 86%
[36]; compound 100.0 µM
  residual activity: 65%

Source: the kinase profiling compilation of Christmann-Franck et al. (2016)
